Results: publication PMC6518372, “An enzymatically stable GIP/xenin hybrid peptide restores GIP sensitivity, enhances beta cell function and improves glucose homeostasis in high-fat-fed mice” (Diabetologia, 2016)
Marks after values point to notes of the source that are not given here.

How the values were obtained:
BRIN-BD11 cells = experiment: In vitro insulin secretion from BRIN-BD11 cells; assay type: cell-based, rat; conditions: 20 min
Description: BRIN-BD11 cells were used to assess the insulin-releasing activity of test peptides, as described previously. This hybrid cell line (ECACC 10033003) was originally generated in-house by electrofusion of a primary culture of New England Deaconess Hospital (NEDH) rat pancreatic islets with RINm5F (a cell line derived from an NEDH rat insulinoma), and has been mycoplasma eradicated. For details of experimental conditions please see ESM Methods. Insulin was measured by radioimmunoassay. We assessed the impact of GIP and neurotensin receptors on (DAla^2)GIP/xenin-8-Gln-induced insulin secretion in BRIN-BD11 cells. Cells were incubated in 5.6 mmol/l glucose with (DAla^2)GIP/xenin-8-Gln (10^−6 mol/l) alone or in combination with the GIP receptor antagonist GIP(6-30)Cex-K^40[Pal] [32] (where Pal is palmitate) or the neurotensin receptor antagonist SR142948A (Sigma, Poole, UK), and insulin secretion determined as described above. In addition, to determine mechanisms, intracellular Ca^2+ was also measured in BRIN-BD11 cells following treatment with test peptides (10^−6 mol/l), using a Flexstation scanning fluorometer (FLIPR Calcium 5 assay kit; Molecular Devices, Sunnyvale, CA, USA), as described previously.
In vitro insulin release studies Cells were seeded at a density of 150,000 cells/well in 24-well plates (Nunc, Roskilde, Denmark) and allowed to attach overnight at 37 °C. Culture medium was removed and cells were pre-incubated in Krebs–Ringer bicarbonate buffer (containing 0.5% (w/v) BSA, pH 7.4) supplemented with 1.1 mmol/l glucose for 40 min at 37 °C. Following the pre-incubation, experiments (n=8) were performed in presence of glucose (5.6 or 16.7 mmol/l) with a […]
incubations, aliquots of assay buffer were collected from each well and stored at -20 °C prior to […]
Acute in vivo effects in lean mice For food intake studies, fasted (18 h) mice were given intraperitoneal (i.p) injections of peptides at a dose of 25, 100 or 250 nmol/kg bw. Mice were then allowed free access to normal chow for 180 mins and cumulative food intake measured. […]

lean control mice = experiment: Persistent glucose-lowering and insulin-releasing effects, peptide 4 h before glucose load; assay type: in vivo, mouse; conditions: 25 nmol/kg injected 4 h before i.p. glucose load 18 mmol/kg, non-fasted lean mice, vs saline
Description: Specific information on acute feeding, glucose homeostasis and insulin-secretory studies is given in ESM Methods. To assess the impact of GIP and neurotensin receptor activation on (DAla^2)GIP/xenin-8-Gln-induced glucose-lowering and insulin-secretory actions in mice, (DAla^2)GIP/xenin-8-Gln was administered by i.p. injection (25 nmol/kg body weight) in combination with glucose (18 mmol/kg) in the absence and presence of GIP(6-30)Cex-K^40[Pal] and SR142948A (both at 25 nmol/kg), and glucose and insulin were measured as described above. In a final series of experiments, test peptides (25 nmol/kg) or saline vehicle (0.9% wt/vol. NaCl) were injected 4 h before a glucose load (18 mmol/kg) in non-fasted mice and blood glucose and plasma insulin measured as above.

high-fat-fed mice [1] = experiment: Glucose tolerance test after 21 day treatment; assay type: in vivo, mouse; conditions: AUC 0–105 min after i.p. glucose 18 mmol/kg; 25 nmol/kg twice daily for 21 days; 18 h fasted high-fat-fed mice; mean ± SEM, 6–8 mice
Description: (§1) Twice-daily (09:30 and 17:30 hours) i.p. injections of saline vehicle, (DAla^2)GIP or (DAla^2)GIP/xenin-8-Gln hybrid (both at 25 nmol/kg) were administered for 21 days in high-fat-fed mice. Energy intake and body weight were monitored daily and non-fasting blood glucose and plasma insulin concentrations were assessed at 3 day intervals. On day 21, a non-fasted 24 h glucose profile was conducted. At the end of the treatment period, i.p. glucose tolerance (18 mmol/kg), biological response to GIP (18 mmol/kg glucose in combination with native GIP [25 nmol/kg], i.p.) and insulin sensitivity (15 U/kg; i.p.) tests were performed. Terminal analysis included measurement of total body fat and lean mass by dual-energy X-ray absorptiometry (DEXA) scanning (Piximus Densitometer; Inside Outside Sales, Fitchburg, WI, USA) and extraction of pancreatic tissue for analysis as detailed below.

high-fat-fed mice [2] = experiment: Pancreatic insulin content and islet histology after 21 day treatment; assay type: in vivo, mouse; conditions: 21 days at 25 nmol/kg twice daily i.p.
Description: Pancreas tissue was excised, divided longitudinally and either snap frozen for extraction of insulin using acid ethanol (5 ml/g), as described previously, or processed for immunohistochemical examination. Immunohistochemistry was performed as described previously. For specific details, please see ESM Methods. […]
insulin secretory studies, blood glucose and plasma insulin were measured immediately prior to and 15, 30, 60 and 105 min after i.p. administration of glucose alone (18 mmol/kg bw) or in combination with test peptides (each at 25 nmol/kg bw) in non-fasted mice.
Immunohistochemistry Tissue sections were deparaffinised, rehydrated and probed with primary antibodies: mouse anti-insulin antibody (1:500; Abcam, ab6995), guinea-pig anti-glucagon antibody (PCA2/4, 1:400; raised in-house) or rabbit anti-Ki67 (1:200; Abcam ab16667), as appropriate. We confirmed the specificity of all antibodies in blocking experiments using the native peptide. Sections were then incubated with secondary antibody, Alexa Fluor 488 goat anti-guinea pig IgG (1:400), Alexa Fluor 594 goat anti-mouse IgG (1:400) or Alexa Fluor 594 goat anti-rabbit IgG (1:400); respectively. TUNEL staining was performed using fluorescein in situ cell detection kit (Roche Diagnostics, Germany). The slides were viewed under a FITC (488 nm) or TRITC filter (594 nm) using a fluorescent microscope (Olympus system microscope, model BX51) and photographed using a DP70 camera adapter system. Islet parameters were analysed using CellF image analysis software (Olympus Soft Imaging Solutions, GmbH).

high-fat-fed mice [3] = experiment: Metabolic response to native GIP after 21 day treatment; assay type: in vivo, mouse; conditions: 25 nmol/kg twice daily for 21 days
Description: as §1

[4] = AUC 0–105 min after i.p. glucose 18 mmol/kg with GIP 25 nmol/kg, 18 h fasted high-fat-fed mice, mean ± SEM, 6–8 mice

In the case of `CC[C@H](C)[C@H](NC(=O)[C@H](CO)NC(=O)[C@H](Cc1ccc(O)cc1)NC(=O)[C@H](CC(=O)O)NC(=O)[C@H](CO)NC(=O)[C@@H](NC(=O)[C@H](Cc1ccccc1)NC(=O)[C@@H](NC(=O)CNC(=O)[C@H](CCC(=O)O)NC(=O)[C@@H](C)NC(=O)[C@@H](N)Cc1ccc(O)cc1)[C@@H](C)O)[C@@H](C)CC)C(=O)N[C@@H](C)C(=O)N[C@@H](CCSC)C(=O)N[C@@H](CC(=O)O)C(=O)N[C@@H](CCCCN)C(=O)N[C@H](C(=O)N[C@@H](Cc1c[nH]cn1)C(=O)N[C@@H](CCC(N)=O)C(=O)N[C@@H](CCC(N)=O)C(=O)N[C@@H](CC(=O)O)C(=O)N[C@@H](Cc1ccccc1)C(=O)N[C@H](C(=O)N[C@@H](CC(N)=O)C(=O)N[C@@H](Cc1c[nH]c2ccccc12)C(=O)N[C@@H](CC(C)C)C(=O)N[C@@H](CC(C)C)C(=O)N[C@@H](C)C(=O)N[C@@H](CCC(N)=O)C(=O)N[C@@H](CCCCN)C(=O)NCC(=O)N[C@@H](CCCCN)C(=O)N[C@@H](CCCCN)C(=O)N[C@@H](CC(N)=O)C(=O)N[C@@H](CC(=O)O)C(=O)N[C@@H](Cc1c[nH]c2ccccc12)C(=O)N[C@@H](CCCCN)C(=O)N[C@@H](Cc1c[nH]cn1)C(=O)N[C@@H](CC(N)=O)C(=O)N[C@H](C(=O)N[C@H](C(=O)N[C@@H](CCC(N)=O)C(=O)O)[C@@H](C)O)[C@@H](C)CC)C(C)C)[C@@H](C)CC` [(DAla^2)GIP], the “Peptide-mediated insulin secretion in presence of GIP receptor antagonist GIP(6-30)Cex-K^40[Pal]” value (BRIN-BD11 cells; peptide 10^−6 mol/l, antagonist 10^−6 mol/l, 5.6 mmol/l glucose) is reported as “completely annulled”, the “Insulin release from BRIN-BD11 cells” value (BRIN-BD11 cells; peptide 10^−8 mol/l, 5.6 or 16.7 mmol/l glucose, vs respective glucose controls) is reported as “significant (p < 0.01 to p < 0.001) increase in insulin release” and the “Overall AUC for blood glucose after glucose challenge” value (lean control mice) is reported as “significantly reduced the overall AUC for blood glucose (p < 0.05)”. The “Plasma insulin AUC after glucose challenge” value (lean control mice) was “increased plasma insulin AUC (p < 0.05)”, the “Glucose tolerance test: Blood glucose AUC” value (high-fat-fed mice [1]) was 1714.7 ± 138.6 mmol·min/L and the “Glucose tolerance test: Plasma insulin AUC” value (high-fat-fed mice [1]) was 11,253 ± 1590 pmol/l × min. For the same molecule, the Beta cell area (high-fat-fed mice [2]) was “no significant effect on overall pancreatic islet area or beta cell area”, the Pancreatic islet area (high-fat-fed mice [2]) was “no significant effect on overall pancreatic islet area or beta cell area” and the “Number of islets per mm^2” value (high-fat-fed mice [2]; vs all other groups) was “significantly (p < 0.05 to p < 0.01) augmented”. The Alpha cell area (high-fat-fed mice [2]; vs high-fat-fed controls) was “decreased (p < 0.001) alpha cell area”, the “Frequency of beta cell apoptosis (TUNEL)” value (high-fat-fed mice [2]; vs high-fat-fed controls) was “significantly (p < 0.01) decreased” and the “Decrease of overall blood glucose AUC in response to native GIP compared with saline-treated control” value (high-fat-fed mice [3]; high-fat-fed mice, glucose 18 mmol/kg with GIP 25 nmol/kg) was 36%. For the same molecule, the “Metabolic response to GIP: Blood glucose AUC” value (high-fat-fed mice [3]; [4]) was 1029.5 ± 138.0 mmol·min/L and the “Metabolic response to GIP: Plasma insulin AUC” value (high-fat-fed mice [3]; [4]) was 20,308 ± 3805**^,††† pmol/l × min.
